Data reported in patent publication US20080114007A1 (priority 2006, published 2008).
pIC50: −log10 of the molar value.

What follows are compounds tested against CSF-1R (Homo sapiens, UniProt P07333) (assay: Peptide (non-phosphorylated) assay, fluorescence polarization competition immunoassay). Conditions: 0.7 nM CSF-1R, 308 μM SYEGNSYTFIDPTQ peptide, 1 mM ATP, 80 min; mean of at least three determinations; read-out: c-fms Peptide IC50.
Type: biochemical
Summary of the method: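 Read-out is fluorescence polarization: after EDTA quench, anti-phosphotyrosine antibody plus PTK green tracer compete with the phosphorylated peptide for 30 min. The CSF-1R reaction itself ran 80 min at room temperature after ATP addition. DMSO (4%) wells served as controls, positive controls pre-treated with EDTA.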

CSF-1R, sequence (P07333 20-972): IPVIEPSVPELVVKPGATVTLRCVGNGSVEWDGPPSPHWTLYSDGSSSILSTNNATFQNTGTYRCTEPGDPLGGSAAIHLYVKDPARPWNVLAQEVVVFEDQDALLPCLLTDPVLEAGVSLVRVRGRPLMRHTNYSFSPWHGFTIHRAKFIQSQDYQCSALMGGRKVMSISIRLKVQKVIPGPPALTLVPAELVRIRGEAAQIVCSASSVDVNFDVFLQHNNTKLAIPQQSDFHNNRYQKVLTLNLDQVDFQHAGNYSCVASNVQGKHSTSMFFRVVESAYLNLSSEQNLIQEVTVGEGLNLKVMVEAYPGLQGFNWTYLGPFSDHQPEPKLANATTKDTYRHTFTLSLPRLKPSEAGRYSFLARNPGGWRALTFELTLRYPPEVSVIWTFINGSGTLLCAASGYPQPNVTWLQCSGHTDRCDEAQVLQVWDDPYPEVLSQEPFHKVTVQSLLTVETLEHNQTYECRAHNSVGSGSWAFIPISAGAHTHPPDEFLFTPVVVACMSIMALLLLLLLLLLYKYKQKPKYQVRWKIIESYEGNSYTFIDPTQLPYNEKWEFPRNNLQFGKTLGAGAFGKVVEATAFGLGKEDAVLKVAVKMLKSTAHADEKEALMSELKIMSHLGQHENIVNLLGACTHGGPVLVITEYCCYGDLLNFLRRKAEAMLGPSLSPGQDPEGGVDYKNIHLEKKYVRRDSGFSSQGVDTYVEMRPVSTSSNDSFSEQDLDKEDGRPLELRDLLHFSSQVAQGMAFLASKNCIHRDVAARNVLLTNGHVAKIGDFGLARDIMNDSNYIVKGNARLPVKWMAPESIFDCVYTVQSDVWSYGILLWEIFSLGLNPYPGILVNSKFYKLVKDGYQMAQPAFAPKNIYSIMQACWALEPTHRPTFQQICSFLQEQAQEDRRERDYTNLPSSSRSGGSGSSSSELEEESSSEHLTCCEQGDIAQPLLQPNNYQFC

| Structure (SMILES) | pIC50 |
| --- | --- |
| CONC(=O)c1cn(-c2ccc3c(c2)CCC3)c2nc(Nc3cccc(C4(O)CCCNC4)c3)ncc2c1=O (stereo not shown) [Cpd 275, 2-[3-(3-hydroxy-piperidin-3-yl)-phenylamino]-8-indan-5-yl-5-oxo-5,8-dihydro-pyrido[2,3-d]pyrimidine-6-carboxylic acid methoxy-amide] | 9.18 |
| CONC(=O)c1cn(-c2ccc3c(c2)CCC3)c2nc(Nc3cccc(C4(O)CCN(C)CC4)c3)ncc2c1=O [Cpd 272, 2-[3-(4-hydroxy-1-methyl-piperidin-4-yl)-phenylamino]-8-indan-5-yl-5-oxo-5,8-dihydro-pyrido[2,3-d]pyrimidine-6-carboxylic acid methoxy-amide] | 9.06 |
| CCc1ccc(-n2cc(C(=O)NOC)c(=O)c3cnc(Nc4cccc(N5CCOCC5)c4)nc32)cc1 [Cpd 320, 8-(4-ethyl-phenyl)-2-(3-morpholin-4-yl-phenylamino)-5-oxo-5,8-dihydro-pyrido[2,3-d]pyrimidine-6-carboxylic acid methoxy-amide] | 9.30 |
| CCONC(=O)c1cn(C2CC2)c2nc(Nc3ccc(CCN4CCCC4)cc3)ncc2c1=O [Cpd 142, 8-cyclopropyl-5-oxo-2-[4-(2-pyrrolidin-1-yl-ethyl)-phenylamino]-5,8-dihydro-pyrido[2,3-d]pyrimidine-6-carboxylic acid ethoxy-amide] | 7.18 |
| CN(C)C(=O)Cc1ccc(Nc2ncc3c(=O)c(C(N)=O)cn(-c4ccc5c(c4)CCC5)c3n2)cc1 [Cpd 118, 2-(4-dimethylcarbamoylmethyl-phenylamino)-8-indan-5-yl-5-oxo-5,8-dihydro-pyrido[2,3-d]pyrimidine-6-carboxylic acid amide] | 8.35 |
| CONC(=O)c1cn(C2CCCCC2)c2nc(Nc3ccc(C[C@H]4COC(=O)N4)cc3)ncc2c1=O [Cpd 22, (S)-8-cyclohexyl-5-oxo-2-[4-(2-oxo-oxazolidin-4-ylmethyl)-phenylamino]-5,8-dihydro-pyrido[2,3-d]pyrimidine-6-carboxylic acid methoxy-amide] | 8.82 |
| CONC(=O)c1cn(-c2ccc3c(c2)CCC3)c2nc(Nc3ccc(CCN4CCN(C)C(=O)C4)cc3)ncc2c1=O [Cpd 220, 8-indan-5-yl-2-{4-[2-(4-methyl-3-oxo-piperazin-1-yl)-ethyl]-phenylamino}-5-oxo-5,8-dihydro-pyrido[2,3-d]pyrimidine-6-carboxylic acid methoxy-amide] | 9.12 |
| CONC(=O)c1cn(-c2ccc3c(c2)CCC3)c2nc(Nc3ccc(C4CCN(CC(=O)O)CC4)cc3)ncc2c1=O [Cpd 219, {4-[4-(8-indan-5-yl-6-methoxycarbamoyl-5-oxo-5,8-dihydro-pyrido[2,3-d]pyrimidin-2-ylamino)-phenyl]-piperidin-1-yl}-acetic acid] | 8.66 |
| CCc1ccc(-n2cc(C(=O)NOC)c(=O)c3cnc(Nc4ccc(CC(=O)NN5CCCCC5)cc4)nc32)cc1 [Cpd 104, 8-(4-ethyl-phenyl)-5-oxo-2-[4-(piperidin-1-ylcarbamoylmethyl)-phenylamino]-5,8-dihydro-pyrido[2,3-d]pyrimidine-6-carboxylic acid methoxy-amide] | 8.52 |
| CONC(=O)c1cn(-c2ccc(OC(F)(F)F)cc2)c2nc(Nc3ccc(C4CCNCC4)cc3)ncc2c1=O [Cpd 176, 5-oxo-2-(4-piperidin-4-yl-phenylamino)-8-(4-trifluoromethoxyphenyl)-5,8-dihydro-pyrido[2,3-d]pyrimidine-6-carboxylic acid methoxy-amide] | 9.23 |
| CONC(=O)c1cn(-c2ccc3c(c2)CCC3)c2nc(Nc3cccc(C4CCN(C(C)=O)CC4)c3)ncc2c1=O [Cpd 197, 2-[3-(1-acetyl-piperidin-4-yl)-phenylamino]-8-indan-5-yl-5-oxo-5,8-dihydro-pyrido[2,3-d]pyrimidine-6-carboxylic acid methoxy-amide] | 8.85 |
| CONC(=O)c1cn(-c2ccc3c(c2)CCC3)c2nc(Nc3cccc(N4CCN(S(=O)(=O)C(F)(F)F)CC4)c3)ncc2c1=O [Cpd 202, 8-indan-5-yl-5-oxo-2-[3-(4-trifluoromethanesulfonyl-piperazin-1-yl)-phenylamino]-5,8-dihydro-pyrido[2,3-d]pyrimidine-6-carboxylic acid methoxy-amide] | 7.17 |
| CONC(=O)c1cn(-c2ccc(OC(F)(F)F)cc2)c2nc(Nc3ccc(CCc4n[nH]c(C)n4)cc3)ncc2c1=O [Cpd 191, 2-{4-[2-(5-methyl-1H-[1,2,4]triazol-3-yl)-ethyl]-phenylamino}-5-oxo-8-(4-trifluoromethoxyphenyl)-5,8-dihydropyrido[2,3-d]pyrimidine-6-carboxylic acid methoxy-amide] | 8.25 |
| CCc1ccc(-n2cc(C(=O)NOC)c(=O)c3cnc(Nc4ccc(OC5CN6CCC5CC6)cc4)nc32)cc1 (stereo not shown) [Cpd 268, 2-[4-(1-aza-bicyclo[2.2.2]oct-3-yloxy)-phenylamino]-8-(4-ethyl-phenyl)-5-oxo-5,8-dihydro-pyrido[2,3-d]pyrimidine-6-carboxylic acid methoxy-amide] | 9.40 |
| CCc1ccc(-n2cc(C(=O)NOC)c(=O)c3cnc(Nc4ccc(C5CCN(CCc6ccccc6)CC5)cc4)nc32)cc1 [Cpd 295, 8-(4-ethyl-phenyl)-5-oxo-2-[4-(1-phenethyl-piperidin-4-yl)-phenylamino]-5,8-dihydro-pyrido[2,3-d]pyrimidine-6-carboxylic acid methoxy-amide] | 8.92 |
| CN1CCN(CCc2ccc(Nc3ncc4c(=O)c(C(N)=O)cn(-c5ccc(F)c(Cl)c5)c4n3)cc2)CC1 [Cpd 3, 8-(3-chloro-4-fluoro-phenyl)-2-{4-[2-(4-methyl-piperazin-1-yl)-ethyl]-phenylamino}-5-oxo-5,8-dihydro-pyrido[2,3-d]pyrimidine-6-carboxylic acid amide] | 7.55 |
| CONC(=O)c1cn(-c2ccc3c(c2)CCC3)c2nc(Nc3ccc(OC4CN5CCC4CC5)cc3)ncc2c1=O (stereo not shown) [Cpd 264, 2-[4-(1-aza-bicyclo[2.2.2]oct-3-yloxy)-phenylamino]-8-indan-5-yl-5-oxo-5,8-dihydro-pyrido[2,3-d]pyrimidine-6-carboxylic acid methoxy-amide] | 9.42 |
| CONC(=O)c1cn(-c2ccc3c(c2)CCC3)c2nc(Nc3ccc(CC(=O)NN4CCCCC4)cc3)ncc2c1=O [Cpd 102, 8-indan-5-yl-5-oxo-2-[4-(piperidin-1-ylcarbamoylmethyl)-phenylamino]-5,8-dihydro-pyrido[2,3-d]pyrimidine-6-carboxylic acid methoxy-amide] | 8.64 |

The remaining lines, values ahead:

| pIC50 | Structure (SMILES) |
| --- | --- |
| 9.28 | CC(C)ONC(=O)c1cn(-c2ccc3c(c2)CCC3)c2nc(Nc3ccc(CCN4CCN(C)CC4)cc3)ncc2c1=O [Cpd 63, 8-indan-5-yl-2-{4-[2-(4-methyl-piperazin-1-yl)-ethyl]-phenylamino}-5-oxo-5,8-dihydro-pyrido[2,3-d]pyrimidine-6-carboxylic acid isopropoxy-amide] |
| 9.00 | CONC(=O)c1cn(-c2ccc3ccccc3c2)c2nc(Nc3ccc(C4CCN(C)CC4)cc3)ncc2c1=O [Cpd 303, 2-[4-(1-methyl-piperidin-4-yl)-phenylamino]-8-naphthalen-2-yl-5-oxo-5,8-dihydro-pyrido[2,3-d]pyrimidine-6-carboxylic acid methoxy-amide] |
| 8.82 | CCc1ccc(-n2cc(C(=O)NOC)c(=O)c3cnc(Nc4ccc5c(c4)N(C(C)=O)CC5)nc32)cc1 [Cpd 281, 2-(1-acetyl-2,3-dihydro-1H-indol-6-ylamino)-8-(4-ethyl-phenyl)-5-oxo-5,8-dihydro-pyrido[2,3-d]pyrimidine-6-carboxylic acid methoxy-amide] |
| 9.30 | COCCOc1ccc(Nc2ncc3c(=O)c(C(=O)NOC)cn(-c4ccc5c(c4)CCC5)c3n2)cc1OCCOC [Cpd 314, 2-[3,4-bis-(2-methoxy-ethoxy)-phenylamino]-8-indan-5-yl-5-oxo-5,8-dihydro-pyrido[2,3-d]pyrimidine-6-carboxylic acid methoxy-amide] |
| 8.92 | CCc1ccc(-n2cc(C(=O)NOC)c(=O)c3cnc(Nc4ccc(OCCOC)cc4)nc32)cc1 [Cpd 257, 8-(4-ethyl-phenyl)-2-[4-(2-methoxy-ethoxy)-phenylamino]-5-oxo-5,8-dihydro-pyrido[2,3-d]pyrimidine-6-carboxylic acid methoxy-amide] |
| 8.82 | CONC(=O)c1cn(-c2ccc3c(c2)CCC3)c2nc(Nc3ccc(CCCN4CCN(C)CC4)cc3)ncc2c1=O [Cpd 151, 8-indan-5-yl-2-{4-[3-(4-methylpiperazin-1-yl)-propyl]-phenylamino}-5-oxo-5,8-dihydro-pyrido[2,3-d]pyrimidine-6-carboxylic acid methoxy-amide] |
| 8.59 | CONC(=O)c1cn(-c2ccc3c(c2)CCC3)c2nc(Nc3ccc(C4CCN(S(N)(=O)=O)CC4)cc3)ncc2c1=O [Cpd 178, 8-indan-5-yl-5-oxo-2-[4-(1-sulfamoyl-piperidin-4-yl)-phenylamino]-5,8-dihydro-pyrido[2,3-d]pyrimidine-6-carboxylic acid methoxy-amide] |
| 8.51 | NC(=O)c1cn(-c2ccc3c(c2)CCC3)c2nc(Nc3ccc(N4CCC[C@H]4CO)cc3)ncc2c1=O [Cpd 6, (S)-2-[4-(2-hydroxymethyl-pyrrolidin-1-yl)-phenylamino]-8-indan-5-yl-5-oxo-5,8-dihydro-pyrido[2,3-d]pyrimidine-6-carboxylic acid amide] |
| 8.01 | CCONC(=O)c1cn(-c2ccc(CC)cc2)c2nc(Nc3ccc(C4CCN(CC(F)(F)F)CC4)cc3)ncc2c1=O [Cpd 189, 8-(4-ethyl-phenyl)-5-oxo-2-{4-[1-(2,2,2-trifluoro-ethyl)-piperidin-4-yl]-phenylamino}-5,8-dihydro-pyrido[2,3-d]pyrimidine-6-carboxylic acid ethoxy-amide] |
| 9.52 | CCc1ccc(-n2cc(C(=O)NOC)c(=O)c3cnc(Nc4ccc(C5CCN(CCOC)CC5)cc4)nc32)cc1 [Cpd 207, 8-(4-ethyl-phenyl)-2-{4-[1-(2-methoxy-ethyl)-piperidin-4-yl]-phenylamino}-5-oxo-5,8-dihydro-pyrido[2,3-d]pyrimidine-6-carboxylic acid methoxy-amide] |
